Assay results from patent US20020115724A1, “Methods and agents for inhibiting protein aging” (priority 1985, published 2002).
Where a name gives a salt, the structure may show the parent alone.

How the values were obtained:
[1] = tested on: diabetic New Zealand white rabbits; assay: Red blood cell deformability in long-term diabetic rabbits; assay type: in vivo, rabbit; conditions: for Red Blood Cell Deformability Index: diabetic rabbits, 100 mg/kg/day oral gavage
Excerpt: New Zealand white rabbits, with induced, long-term diabetes (12.7±3.2 months) are used to study the effects of a test compound on red blood cell (RBC) deformability. If glucose-mediated crosslinking of red blood cell components results in less deformable, more rigid membrane, then therapy should prevent this change in new red cells. Red blood cells already in existence at the initiation of therapy would be unaffected; because RBCs are replaced frequently newly formed red blood cells would be exposed to the therapy. […] The test compound is administered at a rate of 100 mg/kg/day by oral gavage.
The deformability index (DI) (filtration rate of buffer/filtrate rate of suspended RBCs; hematocrit=4.0%) is used as a measure of RBC deformability. Buffer and suspended RBCs are filtered through a 3 μ micropore membrane (Nucleopore Corp., Pleasanton, Calif.) with a pressure of […] at 37° C. A reference range for RBC deformability (2.67 to 4.84, mean 4.02±0.69) and % hemoglobin glycosylation (1.7 to 3.96, mean 2.60±0.70) is obtained from a group of normal New Zealand white rabbits (n=14), matched for age, sex and weight.
The results are given in Table III, below for diabetic New Zealand white rabbits dosed with 100 mg/kg/day aminoguanidine.

normal and diabetic rats = assay: Aorta collagen solubility (acetic acid, CNBr, pepsin); assay type: in vivo, rat; conditions: 25 mg/kg daily i.p., 16 weeks
Method: The experiment consisted of giving both normal and diabetic rats daily intraperitoneal doses of the agent aminoguanidine hydrochloride at a dose of 25 mg per kilogram of body weight, for a period of 16 weeks. […] Diabetes was induced prior to drug therapy with a single dose of streptozotocin. Control animals, both diabetic and normal, received no drug.
Aorta samples from the same groups of animals described in Example IV above were subjected to analysis for Advanced Glycosylation Endproducts (A.G.E.) content and solubility.
Aortas were finely minced with dissecting scissors, delipidated with 5 mL of chloroform: methanol (2:1), washed 5 times with buffer, and divided into aliquots for the following assessments of cross-linking:
(B) Solubility in 0.5M acetic acid was determined after 2 hours of extraction at 25° C. and 24 hours at 4° C.
(C) Solubility after cyanogen bromide cleavage at 30° C. for 18 hours was determined.
(D) Solubility after degradation by pepsin (1.0 mg/mL) in 0.1 M acetate buffer, pH 4.1, at 37° C. for 48 hours.
After treatment for the prescribed period, soluble material was separated from insoluble material by centrifugation (50,000× g, 1 hour), and all fractions were lyophilized and hydrolyzed in 6M HCl for determination of total hydroxyproline.

calf skin collagen = assay: Calf skin collagen crosslinking by glucose: cyanogen bromide fragments on SDS-polyacrylamide gel; assay type: biochemical; conditions: 140 mM glucose, 200 mM aminoguanidine, 3 weeks, 35° C.; Lane B
Method: Collagen from samples of calf skin were extracted into acetic acid and then precipitated with 0.6 M sodium chloride. These procedures removed from the solution skin collagen that was already permanently crosslinked or denatured. Native collagen fibrils were reformed by dialysis against 0.02M phosphate buffer, and these were incubated for 3 weeks at 35° C. in the presence of 140 mM glucose and with or without 200 mM aminoguanidine. After incubation, the samples were dialyzed and the degree of crosslinking was determined by two methods. First, the amount of reacted collagen which could be solubilized by treatment in 2% sodium dodecyl sulfate at 100° C. was measured.
The reacted collagen was further examined by cleaving it into fragments using cyanogen bromide treatment in formic acid, the resulting protein fragments were separated by size by sodium dodecyl sulfate-polyacrylamide gel electrophoresis. After electrophoresis, the protein fragments were identified in the gel using silver staining.
Referring to FIG. 3B, Lane C contains collagen that was incubated with glucose alone. It is noted that a large amount of high molecular weight fragments form a continuous band at the top of the gel, indicating a large range of high molecular weight fragments. Some of this material could not enter the gel and is present in the […] stacking gel above the gradient gel. […]

N=C(N)NN [aminoguanidine hydrochloride]
Red Blood Cell Deformability Index ([1]; 0 weeks of dosing (baseline)): 18.32 ± 6.03 | Red Blood Cell Deformability Index ([1]; 4 weeks of dosing): 7.17 ± 3.12 | Red Blood Cell Deformability Index ([1]; 8 weeks of dosing): 6.83 ± 2.97 | Red Blood Cell Deformability Index ([1]; 12 weeks of dosing): 4.64 ± 1.58 | Red Blood Cell Deformability Index ([1]; 16 weeks of dosing): 4.44 ± 1.33 | Red Blood Cell Deformability Index ([1]; 20 weeks of dosing): 4.14 ± 1.06 | effect on diabetes-induced increased deformability index ([1]; long-term diabetic rabbits, delayed treatment): to normal after 12 weeks | RBC deformability index ([1]; separate experiment, daily administration from the time of induction of diabetes): never became abnormal | Percent collagen solubilized by 0.5 M acetic acid (normal and diabetic rats; diabetic rats): 12.6 ± 0.3% | Percent collagen solubilized by CNBr (normal and diabetic rats; diabetic rats): 10.6 ± 0.1% | Percent collagen solubilized by Pepsin (normal and diabetic rats; diabetic rats): 46.1 ± 0.4% | Percent collagen solubilized by 0.5 M acetic acid (normal and diabetic rats; normal rats): 18.7 ± 0.3% | Percent collagen solubilized by CNBr (normal and diabetic rats; normal rats): 13.6 ± 0.3% | Percent collagen solubilized by Pepsin (normal and diabetic rats; normal rats): 52.5 ± 0.2% | high molecular weight fragments after cyanogen bromide cleavage (gel) (calf skin collagen): no large amount of high molecular weight material
